Reference: US20230265151A1, “GIP/GLP1 CO-AGONIST COMPOUNDS” (priority 2020, published 2023)
Read-outs that look alike come from different tables or passages of the source. *1 amine or outer side, *2 acyl side, *3 side chain or, on linkers, in order; H or OH if unused. Where a SMILES comes first, the peptide text is derived from it. Side-chain parts run from the residue outwards. [ ]: non-standard residue; d: D form. The star is where a group is joined. Decanoyl(10-(4-HOOC-PhO)) = O=C(O)c1ccc(OCCCCCCCCCC(=O)*)cc1; αMePhe(2-F) = C[C@](N)(Cc1ccccc1F)C(=O)O; γGlu = O=C(O)[C@H](CCC(=O)[*:2])N[*:1]; αMeY = C[C@](N)(Cc1ccc(O)cc1)C(=O)O; αMeL = CC(C)C[C@](C)(N)C(=O)O; Orn = NCCC[C@H](N)C(=O)O; AEEA = NCCOCCOCC(=O)O; Aib = CC(C)(N)C(=O)O

Assays:
Assay type in all cases: cell-based
hGIPR = molecular target: T1, hGIPR (Homo sapiens, UniProt P48546); test: Functional cAMP formation (HTRF) in HEK-293 clonal cells expressing hGIPR, 0.1% bovine casein, without or with 1.0% human serum albumin; settings: for Emax: percent of maximal response to GIP(1-42)NH2; for EC50: hGIPR EC50, nM (SEM, n), cAMP
T1 construct: expressed in transfected cells
T1 sequence (P48546 22-466): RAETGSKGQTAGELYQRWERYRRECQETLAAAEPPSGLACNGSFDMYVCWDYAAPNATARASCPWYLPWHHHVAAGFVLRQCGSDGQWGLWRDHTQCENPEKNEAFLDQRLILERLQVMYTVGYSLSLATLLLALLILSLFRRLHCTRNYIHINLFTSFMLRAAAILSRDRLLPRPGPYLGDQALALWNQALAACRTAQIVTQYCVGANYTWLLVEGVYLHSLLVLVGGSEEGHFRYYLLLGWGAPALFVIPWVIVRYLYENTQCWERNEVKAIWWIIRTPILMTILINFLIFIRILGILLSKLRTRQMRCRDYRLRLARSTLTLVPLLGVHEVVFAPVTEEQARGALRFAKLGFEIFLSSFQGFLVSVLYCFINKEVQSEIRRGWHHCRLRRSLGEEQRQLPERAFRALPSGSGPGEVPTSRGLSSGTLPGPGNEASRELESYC
Procedure, shortened: (§1)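 Cells were stimulated with peptide for 30 min at 37° C, then intracellular cAMP was measured by competitive HTRF (665/620 nm ratio) and converted to nM using a cAMP standard curve. Relative EC50 and Emax came from four-parameter logistic fits of percent maximal response against peptide concentration.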

hGCGR = molecular target: T2, hGCGR (Homo sapiens, UniProt P47871); test: Functional cAMP formation (HTRF) in HEK-293 clonal cells expressing hGCGR, 0.1% bovine casein, without or with 1.0% human serum albumin; settings: hGCGR EC50, nM (SEM, n), cAMP
T2 construct: expressed in transfected cells
T2 sequence (P47871 26-477): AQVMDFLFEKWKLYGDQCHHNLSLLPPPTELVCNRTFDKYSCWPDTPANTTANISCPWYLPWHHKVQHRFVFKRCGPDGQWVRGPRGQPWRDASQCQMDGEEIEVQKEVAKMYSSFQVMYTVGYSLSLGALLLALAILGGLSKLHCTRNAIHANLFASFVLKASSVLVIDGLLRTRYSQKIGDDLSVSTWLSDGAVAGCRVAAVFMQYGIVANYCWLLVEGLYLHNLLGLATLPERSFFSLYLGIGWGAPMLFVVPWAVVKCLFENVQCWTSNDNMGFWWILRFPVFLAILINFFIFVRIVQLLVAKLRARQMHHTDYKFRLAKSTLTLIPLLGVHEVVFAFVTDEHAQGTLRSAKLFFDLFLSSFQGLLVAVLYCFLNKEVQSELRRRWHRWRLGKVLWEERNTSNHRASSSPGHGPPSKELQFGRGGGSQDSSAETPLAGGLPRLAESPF
Procedure, shortened: as §1

hGLP-1R = hGLP-1R (Homo sapiens, UniProt P43220); test: Functional cAMP formation (HTRF) in HEK-293 clonal cells expressing hGLP-1R, 0.1% bovine casein, without or with 1.0% human serum albumin; set-up: expressed in transfected cells; settings: for EC50: hGLP-1R EC50, nM (SEM, n), cAMP
hGLP-1R, sequence (P43220 24-463): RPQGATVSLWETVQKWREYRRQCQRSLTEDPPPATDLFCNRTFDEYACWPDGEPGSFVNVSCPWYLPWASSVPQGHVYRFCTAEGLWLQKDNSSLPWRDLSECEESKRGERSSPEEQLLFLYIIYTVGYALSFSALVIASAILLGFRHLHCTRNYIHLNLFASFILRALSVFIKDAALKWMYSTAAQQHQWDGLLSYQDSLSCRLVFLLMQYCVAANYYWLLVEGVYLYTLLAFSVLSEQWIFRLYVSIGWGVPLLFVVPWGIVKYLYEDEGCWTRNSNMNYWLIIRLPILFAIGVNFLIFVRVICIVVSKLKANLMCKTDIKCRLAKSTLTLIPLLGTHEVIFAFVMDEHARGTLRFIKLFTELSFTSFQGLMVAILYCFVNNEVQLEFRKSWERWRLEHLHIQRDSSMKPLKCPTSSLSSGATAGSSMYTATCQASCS
Procedure, shortened: as §1

[1] = HEK293, read-out: hGIPR Emax, % ± SEM, cAMP, 37° C., 0.1% bovine casein and 1.0% human serum albumin
[2] = 37° C., 0.1% bovine casein (no human serum albumin), geometric mean
[3] = 37° C., 0.1% bovine casein and 1.0% human serum albumin, geometric mean (SEM, n)
[4] = HEK293, read-out: hGLP-1R Emax, % ± SEM, cAMP, 37° C., 0.1% bovine casein and 1.0% human serum albumin, percent of maximal response to GLP-1(7-36)NH2
[5] = HEK293, read-out: hGLP-1R Emax, % ± SEM, cAMP, 37° C., 0.1% bovine casein, percent of maximal response to GLP-1(7-36)NH2, arithmetic mean
[6] = incubated at 37° C., 0.1% bovine casein (no human serum albumin), geometric mean

Row | SMILES | Emax (hGIPR; [1]) [%] | EC50 (hGIPR; [2]) [nM] | EC50 (hGIPR; [3]) [nM] | EC50 (hGCGR; [2]) [nM] | EC50 (hGCGR; [3]) [nM] | Emax (hGLP-1R; [4]) [%] | Emax (hGLP-1R; [5]) [%] | EC50 (hGLP-1R; [2]) [nM] | EC50 (hGLP-1R; [3]) [nM] | Emax (hGIPR; HEK293, read-out: hGIPR Emax, % ± SEM, cAMP, 37° C., 0.1% bovine casein, arithmetic mean) [%] | EC50 (hGIPR; [6]) [nM] | EC50 (hGCGR; [6]) [nM] | Emax (hGLP-1R; HEK293, read-out: hGLP-1R Emax, % ± SEM, percent of maximal response to GLP-1(7-36)NH2, 37° C., 0.1% bovine casein, arithmetic mean) [%] | EC50 (hGLP-1R; [6]) [nM]
1 | CC[C@H](C)[C@H](NC(=O)[C@H](CC(C)C)NC(=O)[C@](C)(Cc1ccc(O)cc1)NC(=O)[C@H](CCCCNC(=O)CCCCCCCNC(=O)COCCOCCNC(=O)CC[C@H](NC(=O)CCCCCCCCCOc1ccc(C(=O)O)cc1)C(=O)O)NC(=O)[C@@H](NC(=O)[C@H](Cc1ccccc1)NC(=O)[C@H](CCCN)NC(=O)C(C)(C)NC(=O)[C@H](CCC(N)=O)NC(=O)[C@H](C)NC(=O)[C@H](CCC(N)=O)NC(=O)[C@H](CCCN)NC(=O)[C@H](CC(=O)O)NC(=O)[C@H](CC(C)C)NC(=O)[C@](C)(CC(C)C)NC(=O)[C@@H](NC(=O)C(C)(C)NC(=O)[C@H](Cc1ccncc1)NC(=O)[C@H](CC(=O)O)NC(=O)[C@H](CO)NC(=O)[C@@H](NC(=O)[C@](C)(Cc1ccccc1F)NC(=O)[C@@H](NC(=O)CNC(=O)[C@H](CCC(=O)O)NC(=O)C(C)(C)NC(=O)[C@@H](N)Cc1ccc(O)cc1)[C@@H](C)O)[C@@H](C)O)[C@@H](C)CC)[C@@H](C)CC)C(=O)N[C@@H](CCCCNC(=O)CCCCCCCNC(=O)COCCOCCNC(=O)CC[C@H](NC(=O)CCCCCCCCCOc1ccc(C(=O)O)cc1)C(=O)O)C(=O)NCC(=O)NCC(=O)N1CCC[C@H]1C(=O)N[C@@H](CO)C(=O)N[C@@H](CO)C(=O)NCC(=O)N[C@@H](C)C(=O)N1CCC[C@H]1C(=O)N1CCC[C@H]1C(=O)N1CCC[C@H]1C(=O)N[C@@H](CO)C(N)=O [Example 456] | 94.7 | 0.0236 | 0.878 | > 9950 | > 9950 | 112 | 116 | 0.341 | – | – | – | – | – | –
2 | CC[C@H](C)[C@H](NC(=O)[C@H](CC(C)C)NC(=O)[C@](C)(Cc1ccc(O)cc1)NC(=O)[C@H](CCCCNC(=O)CCOCCOCCOCCOCCOCCNC(=O)CC[C@H](NC(=O)CCCCCCCCCOc1ccc(C(=O)O)cc1)C(=O)O)NC(=O)[C@@H](NC(=O)[C@H](Cc1ccccc1)NC(=O)[C@H](CCCN)NC(=O)C(C)(C)NC(=O)[C@H](CCC(N)=O)NC(=O)[C@H](C)NC(=O)[C@H](CCC(N)=O)NC(=O)[C@H](CCCN)NC(=O)[C@H](CC(=O)O)NC(=O)[C@H](CC(C)C)NC(=O)[C@](C)(CC(C)C)NC(=O)[C@@H](NC(=O)C(C)(C)NC(=O)[C@H](Cc1ccncc1)NC(=O)[C@H](CC(=O)O)NC(=O)[C@H](CO)NC(=O)[C@@H](NC(=O)[C@](C)(Cc1ccccc1F)NC(=O)[C@@H](NC(=O)CNC(=O)[C@H](CCC(=O)O)NC(=O)C(C)(C)NC(=O)[C@@H](N)Cc1ccc(O)cc1)[C@@H](C)O)[C@@H](C)O)[C@@H](C)CC)[C@@H](C)CC)C(=O)N[C@@H](CCCCNC(=O)CCOCCOCCOCCOCCOCCNC(=O)CC[C@H](NC(=O)CCCCCCCCCOc1ccc(C(=O)O)cc1)C(=O)O)C(=O)NCC(=O)NCC(=O)N1CCC[C@H]1C(=O)N[C@@H](CO)C(=O)N[C@@H](CO)C(=O)NCC(=O)N[C@@H](C)C(=O)N1CCC[C@H]1C(=O)N1CCC[C@H]1C(=O)N1CCC[C@H]1C(=O)N[C@@H](CO)C(N)=O [Example 469] | 82.1 | 0.0121 | – | > 9950 | > 9950 | 93.8 | 111 | 0.161 | 2.33 | – | – | – | – | –
3 | CC[C@H](C)[C@H](NC(=O)[C@H](CCCN)NC(=O)[C@H](CC(=O)O)NC(=O)[C@H](CC(C)C)NC(=O)[C@](C)(CC(C)C)NC(=O)[C@@H](NC(=O)C(C)(C)NC(=O)[C@@H](NC(=O)[C@H](CC(=O)O)NC(=O)[C@H](CO)NC(=O)[C@@H](NC(=O)[C@](C)(Cc1ccccc1F)NC(=O)[C@@H](NC(=O)CNC(=O)[C@H](CCC(=O)O)NC(=O)C(C)(C)NC(=O)[C@@H](N)Cc1ccc(O)cc1)[C@@H](C)O)[C@@H](C)O)C(C)C)[C@@H](C)CC)C(=O)N[C@@H](C)C(=O)N[C@@H](CCC(N)=O)C(=O)NC(C)(C)C(=O)N[C@@H](CCCCNC(=O)COCCOCCNC(=O)COCCOCCNC(=O)CC[C@H](NC(=O)CCCCCCCCCOc1ccc(C(=O)O)cc1)C(=O)O)C(=O)N[C@@H](Cc1ccccc1)C(=O)N[C@H](C(=O)N[C@H](CCC(=O)O)C(=O)N[C@@](C)(Cc1ccc(O)cc1)C(=O)N[C@@H](CC(C)C)C(=O)N[C@H](C(=O)N[C@@H](CCCCNC(=O)COCCOCCNC(=O)COCCOCCNC(=O)CC[C@H](NC(=O)CCCCCCCCCOc1ccc(C(=O)O)cc1)C(=O)O)C(=O)NCC(=O)NCC(=O)N1CCC[C@H]1C(=O)N[C@@H](CO)C(=O)N[C@@H](CO)C(=O)NCC(=O)N[C@@H](C)C(=O)N1CCC[C@H]1C(=O)N1CCC[C@H]1C(=O)N1CCC[C@H]1C(=O)N[C@@H](CO)C(N)=O)[C@@H](C)CC)[C@@H](C)CC [Example 330] | – | 0.0185 | – | > 9950 | > 9950 | 85 | – | 0.477 | – | 112 | – | – | – | –
4 | CC[C@H](C)[C@H](NC(=O)[C@H](CC(C)C)NC(=O)[C@](C)(Cc1ccc(O)cc1)NC(=O)[C@H](CCCCNC(=O)COCCOCCNC(=O)COCCOCCNC(=O)CC[C@H](NC(=O)CCCCCCCCCCCCC(=O)O)C(=O)O)NC(=O)[C@@H](NC(=O)[C@](C)(Cc1ccccc1)NC(=O)[C@H](CCC(=O)O)NC(=O)C(C)(C)NC(=O)[C@H](CCC(N)=O)NC(=O)[C@H](C)NC(=O)[C@H](CCCCNC(=O)COCCOCCNC(=O)COCCOCCNC(=O)CC[C@H](NC(=O)CCCCCCCCCCCCC(=O)O)C(=O)O)NC(=O)[C@H](CCCN)NC(=O)[C@H](CC(=O)O)NC(=O)[C@H](CC(C)C)NC(=O)[C@](C)(CC(C)C)NC(=O)[C@@H](NC(=O)C(C)(C)NC(=O)[C@@H](NC(=O)[C@H](CC(=O)O)NC(=O)[C@H](CO)NC(=O)[C@@H](NC(=O)[C@](C)(Cc1ccccc1F)NC(=O)[C@@H](NC(=O)CNC(=O)[C@H](CCC(=O)O)NC(=O)C(C)(C)NC(=O)[C@@H](N)Cc1ccc(O)cc1)[C@@H](C)O)[C@@H](C)O)C(C)C)[C@@H](C)CC)[C@@H](C)CC)C(=O)N[C@@H](CCC(=O)O)C(=O)NCC(=O)NCC(=O)N1CCC[C@H]1C(=O)N[C@@H](CO)C(=O)N[C@@H](CO)C(=O)NCC(=O)N[C@@H](C)C(=O)N1CCC[C@H]1C(=O)N1CCC[C@H]1C(=O)N1CCC[C@H]1C(=O)N[C@@H](CO)C(N)=O [Example 119] | – | – | – | – | – | – | – | – | – | – | 0.0863 | > 9950 | 99.4 | 0.351
5 | CC[C@H](C)[C@H](NC(=O)[C@H](CCCN)NC(=O)[C@H](CC(=O)O)NC(=O)[C@H](CC(C)C)NC(=O)[C@](C)(CC(C)C)NC(=O)[C@@H](NC(=O)C(C)(C)NC(=O)[C@H](Cc1ccc(O)cc1)NC(=O)[C@H](CC(=O)O)NC(=O)[C@H](CO)NC(=O)[C@@H](NC(=O)[C@](C)(Cc1ccccc1F)NC(=O)[C@@H](NC(=O)CNC(=O)[C@H](CCC(=O)O)NC(=O)C(C)(C)NC(=O)[C@@H](N)Cc1ccc(O)cc1)[C@@H](C)O)[C@@H](C)O)[C@@H](C)CC)C(=O)N[C@@H](C)C(=O)N[C@@H](CCC(N)=O)C(=O)NC(C)(C)C(=O)N[C@@H](CCCCNC(=O)COCCOCCNC(=O)CC[C@H](NC(=O)CCCCCCCCCOc1ccc(C(=O)O)cc1)C(=O)O)C(=O)N[C@@H](Cc1ccccc1)C(=O)N[C@H](C(=O)N[C@H](CCC(=O)O)C(=O)N[C@@](C)(Cc1ccc(O)cc1)C(=O)N[C@@H](CC(C)C)C(=O)N[C@H](C(=O)N[C@@H](CCCCNC(=O)COCCOCCNC(=O)CC[C@H](NC(=O)CCCCCCCCCOc1ccc(C(=O)O)cc1)C(=O)O)C(=O)NCC(=O)NCC(=O)N1CCC[C@H]1C(=O)N[C@@H](CO)C(=O)N[C@@H](CO)C(=O)NCC(=O)N[C@@H](C)C(=O)N1CCC[C@H]1C(=O)N1CCC[C@H]1C(=O)N1CCC[C@H]1C(=O)N[C@@H](CO)C(N)=O)[C@@H](C)CC)[C@@H](C)CC [Example 376] (H-Y[Aib]EGT[αMePhe(2-F)]TSDY[Aib]I[αMeL]LD[Orn]IAQ[Aib]K([AEEA-γGlu-Decanoyl(10-(4-HOOC-PhO))])FI[dE][αMeY]LIK([AEEA-γGlu-Decanoyl(10-(4-HOOC-PhO))])GGPSSGAPPPS-NH2) | 88.3 | 0.0281 | – | > 9950 | > 9950 | 121 | – | 0.539 | – | – | – | – | – | –
